Experimental data reported in ChEMBL document CHEMBL1201862, “PubChem BioAssay data set” (2004).
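Cells were grown in 96-well plates and exposed to each compound for 48 hours at five concentrations; endpoints were interpolated linearly between bracketing concentrations, or set to the highest concentration if not reached. Here, GI50 denotes the concentration required for 50% inhibition of growth.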 Activity calls are given as the source filed them. Cut-off read from the data, not from the text of the source: active = GI50 up to about 1.1 µM and inactive = higher.

What was measured:
Assay in all cases: NCI-60 cell line screen, 48 h
[1] = test system: 786-0
[2] = test system: A549
[3] = test system: BT-549
[4] = test system: DU-145
[5] = test system: HCT-116
[6] = test system: Hs-578T
[7] = test system: IGROV-1
[8] = test system: MCF7
[9] = test system: NCI-H226
[10] = test system: NCI-H23
[11] = test system: NCI/ADR-RES
[12] = test system: OVCAR-5
[13] = test system: RXF 393
[14] = test system: SF-268
[15] = test system: SF-295
[16] = test system: SNB-19
[17] = test system: SNB-75
[18] = test system: SR
[19] = test system: UACC-257
[20] = test system: UACC-62

SMILES | GI50 [1] | GI50 [2] | GI50 [3] | GI50 [4] | GI50 [5] | GI50 [6] | GI50 [7] | GI50 [8] | GI50 [9] | GI50 [10] | GI50 [11] | GI50 [12] | GI50 [13] | GI50 [14] | GI50 [15] | GI50 [16] | GI50 [17] | GI50 [18] | GI50 [19] | GI50 [20]
O=C(O)CC1(CC(=O)O)Nc2ccccc2SC1=O | > 100 µM (inactive) | > 100 µM (inactive) | > 100 µM (inactive) | > 100 µM (inactive) | > 100 µM (inactive) | > 100 µM (inactive) | > 100 µM (inactive) | > 100 µM (inactive) | > 100 µM (inactive) | > 100 µM (inactive) | > 100 µM (inactive) | > 100 µM (inactive) | > 100 µM (inactive) | > 100 µM (inactive) | > 100 µM (inactive) | > 100 µM (inactive) | > 100 µM (inactive) | > 100 µM (inactive) | > 100 µM (inactive) | > 100 µM (inactive)
COc1ccc2nc3cc(Cl)ccc3c(Nc3ccc(O)c(CN4CCN(C)CC4)c3)c2c1 | 1.5 µM (inactive) | 1.87 µM (inactive) | 20.3 µM (inactive) | 1.9 µM (inactive) | 1.75 µM (inactive) | 1.89 µM (inactive) | 1.71 µM (inactive) | 1.64 µM (inactive) | 20.5 µM (inactive) | 1.89 µM (inactive) | 2.08 µM (inactive) | 2.41 µM (inactive) | 1.69 µM (inactive) | 2.28 µM (inactive) | 1.91 µM (inactive) | 2.43 µM (inactive) | 1.62 µM (inactive) | 0.676 µM (active) | 1.86 µM (inactive) | 1.72 µM (inactive)
S=c1nc(N2CCCCC2)c2cn[nH]c2[nH]1 | 88.5 µM (inactive) | 76.7 µM (inactive) | 26.1 µM (inactive) | 59.7 µM (inactive) | 56.6 µM (inactive) | 57.4 µM (inactive) | 22.1 µM (inactive) | 34.6 µM (inactive) | > 100 µM (inactive) | 40.4 µM (inactive) | > 100 µM (inactive) | > 100 µM (inactive) | 91.8 µM (inactive) | 78 µM (inactive) | 59.6 µM (inactive) | > 100 µM (inactive) | > 100 µM (inactive) | 14.5 µM (inactive) | 98.9 µM (inactive) | 50.1 µM (inactive)
COc1ccc(C2CC(C)(O)Oc3cc4c(cc32)OCO4)cc1 (stereo not given) | 37.2 µM (inactive) | 30.5 µM (inactive) | 17.3 µM (inactive) | 61.2 µM (inactive) | 30.6 µM (inactive) | 26.6 µM (inactive) | 29.5 µM (inactive) | 34.9 µM (inactive) | 53.7 µM (inactive) | 33.7 µM (inactive) | 23.3 µM (inactive) | 55.7 µM (inactive) | 0.0855 µM (active) | 35.8 µM (inactive) | 30.8 µM (inactive) | 38.4 µM (inactive) | 29.7 µM (inactive) | 24.2 µM (inactive) | 32.4 µM (inactive) | 36.9 µM (inactive)
Nc1ncc2c(n1)-c1ccccc1OC2N1CCCCC1 (stereo not given) | > 100 µM (inactive) | > 100 µM (inactive) | > 100 µM (inactive) | > 100 µM (inactive) | > 100 µM (inactive) | > 100 µM (inactive) | > 100 µM (inactive) | > 100 µM (inactive) | > 100 µM (inactive) | > 100 µM (inactive) | > 100 µM (inactive) | > 100 µM (inactive) | > 100 µM (inactive) | > 100 µM (inactive) | > 100 µM (inactive) | > 100 µM (inactive) | > 100 µM (inactive) | > 100 µM (inactive) | > 100 µM (inactive) | > 100 µM (inactive)
Cc1nnc(SCc2nc(C#N)c(C#N)nc2CSc2nnc(C)s2)s1 | 9.48 µM (inactive) | 33.3 µM (inactive) | 16.2 µM (inactive) | 14.5 µM (inactive) | 4.55 µM (inactive) | 17.1 µM (inactive) | 16.8 µM (inactive) | 12.3 µM (inactive) | 25.1 µM (inactive) | 19.1 µM (inactive) | 30.6 µM (inactive) | 18.1 µM (inactive) | 6.76 µM (inactive) | 17.9 µM (inactive) | 39.4 µM (inactive) | 47.5 µM (inactive) | 19.8 µM (inactive) | 4.6 µM (inactive) | 13.8 µM (inactive) | 15.8 µM (inactive)
Nc1nc(N)c2cc(-c3cc4ccccc4[nH]3)ccc2n1 | 22.5 µM (inactive) | 32.2 µM (inactive) | 23 µM (inactive) | 21.3 µM (inactive) | 31.8 µM (inactive) | 32.1 µM (inactive) | 15.8 µM (inactive) | 18.1 µM (inactive) | 27.7 µM (inactive) | 27.5 µM (inactive) | 30.3 µM (inactive) | 18.6 µM (inactive) | 24.8 µM (inactive) | 22.2 µM (inactive) | 27.6 µM (inactive) | 33 µM (inactive) | 32.4 µM (inactive) | 30.2 µM (inactive) | 16.2 µM (inactive) | 17.4 µM (inactive)
O=C(OCc1ccccc1)C1(N2CN(C3(C(=O)OCc4ccccc4)CCCC3)CN(C3(C(=O)OCc4ccccc4)CCCC3)C2)CCCC1 | > 10 µM (inactive) | > 10 µM (inactive) | > 10 µM (inactive) | > 10 µM (inactive) | > 10 µM (inactive) | > 10 µM (inactive) | > 10 µM (inactive) | > 10 µM (inactive) | > 10 µM (inactive) | > 10 µM (inactive) | > 10 µM (inactive) | > 10 µM (inactive) | > 10 µM (inactive) | > 10 µM (inactive) | > 10 µM (inactive) | > 10 µM (inactive) | > 10 µM (inactive) | > 10 µM (inactive) | > 10 µM (inactive) | > 10 µM (inactive)
CCOc1cc(NC(C)=O)ccc1C(=O)NNS(=O)(=O)c1ccc(Cl)cc1Cl | > 50 µM (inactive) | > 50 µM (inactive) | > 50 µM (inactive) | > 50 µM (inactive) | > 50 µM (inactive) | > 50 µM (inactive) | > 50 µM (inactive) | 26.4 µM (inactive) | > 50 µM (inactive) | > 50 µM (inactive) | > 50 µM (inactive) | > 50 µM (inactive) | > 50 µM (inactive) | > 50 µM (inactive) | > 50 µM (inactive) | > 50 µM (inactive) | > 50 µM (inactive) | 13.9 µM (inactive) | > 50 µM (inactive) | > 50 µM (inactive)
NC(C(=O)O)c1cc(O)no1 (stereo not given) | > 100 µM (inactive) | > 100 µM (inactive) | > 42.5 µM (inactive) | > 100 µM (inactive) | > 100 µM (inactive) | > 100 µM (inactive) | > 100 µM (inactive) | > 100 µM (inactive) | > 100 µM (inactive) | > 100 µM (inactive) | > 100 µM (inactive) | > 100 µM (inactive) | > 100 µM (inactive) | > 100 µM (inactive) | > 100 µM (inactive) | > 100 µM (inactive) | > 100 µM (inactive) | > 100 µM (inactive) | > 100 µM (inactive) | > 100 µM (inactive)
